Experimental data reported in US12441734B2, “Ferroptosis inhibitor and use therefor” (JICHI MEDICAL UNIVERSITY, priority 2021, dated 2025).

Experiments:
[1] = tested on: Leigh syndrome patient cells (KCMC10); experiment: Test III: suppression of BSO-induced ferroptosis, Leigh syndrome patient cells; format: cell-based, human; conditions: for EC50: Homo sapiens, read-out: EC50 (50% effective concentration of the suppressive effect on cell death ascribable to ferroptosis induced by BSO); for EC50 / ferroptosis inhibitory effect (judged from EC50 value): Leigh syndrome patient cells (KCMC10), BSO; for cell death ascribable to ferroptosis induced by BSO: 100 μM BSO coadded with test compound, FIG. 32; for ferroptosis inhibitory effect (judged from EC50 value): Table 3
Text: (§1) Apomorphine and idebenone approved as a therapeutic drug for Leber's hereditary optic neuropathy in the Europe were used as control drugs.
(§2) In the drawing, A depicts the results obtained using compounds D8, D9, D10, D18, D20, D26, and D36, and B depicts the results obtained using compounds D37, D38, D39, D40, D41, D42, and D43. In the drawing, the abscissa depicts test compounds, and the ordinate depicts the cell viability (%) of each treated plot when the number of live cells in a control non-supplemented with BSO is defined as 100%.

dopamine D2 receptor = dopamine D2 receptor (Homo sapiens (Human), UniProt P14416); experiment: Test IV: dopamine D2 receptor binding activity (GeneBLAzer D2-Gqo5-NEAT-bla CHO-K1 Cell-based Assay); conditions: for Dopamine D2 receptor binding activity, Activity intensity: CHO-K1 reporter cells, 5 hours
Description: In this test, the dopamine D2 receptor binding activity of each test compound was measured using GeneBLAzer D2-Gqo5-NEAT-bla CHO-K1 Cell-based Assay (Thermo Fisher Scientific, Inc.). The CHO cells are designed such that a signal transduction pathway is activated by addition of a drug to express a reporter gene (P lactamase). […] Therefore, the binding activity of the test compound can be measured by measuring a blue fluorescence/green fluorescence ratio. The CHO cells were inoculated at 10,000 cells/well to a 384-well plate and cultured for 16 to 20 hours in a CO2 incubator. […] A substrate mix was added to the cells and incubated at room temperature for 2 hours. […] The respective EC50 values of the test compounds were determined from the measured fluorescence ratios using GraphPad Prism 8.

[2] = tested on: human liver cancer cell line (Huh7); experiment: Test V: suppression of RSL-3-induced cell death in liver cancer cell system (LDH, MTT); format: cell-based; design: key to LDH (LDH activity, cell death): relative to control without RSL-3 (= 1); conditions: Huh7, test compound 1 μM (GSK872 5 μM) 1 hour, then RSL-3 0.5 μM 24 hours, relative value, control non-supplemented with RSL-3 = 1; for viability at 1 µM: Homo sapiens, Huh-7, read-out: MTT (cell proliferation and cell viability)
Description: The ferroptosis inducer used was RSL-3.
At the stage where 70% confluency was attained, the medium was replaced with the medium for the test, and DMSO or each test compound (final concentration of GSK872: 5 μM, and final concentration of the other compounds: 1 μM) was added to the cells in each well, which were then cultured for 1 hour. Then, the ferroptosis inducer (final concentration: 0.5 μM) was added to the cells in each well, which were then cultured for 24 hours. After the completion of culture, cell death suppressive activity was measured with lactate dehydrogenase (LDH) activity as an index while cell proliferation and cell viability were measured with activity of reducing yellow tetrazolium salt (MTT) into formazan as an index.
The values in the table are relative values when the LDH activity and MTT value of a control non-supplemented with RSL-3 are each defined as 1.

SH-SY5Y cells = experiment: Test VI: inhibition of rotenone-induced neuronal death (LDH assay); format: cell-based, human; design: key: ++: the case where a concentration-dependent inhibitory effect on rotenone-induced cell death was able to be confirmed twice; +: In the third test, the case where the concentration-dependent inhibitory effect was able to be confirmed; ±: the case where no concentration-dependent inhibitory effect was able to be confirmed; −: The case where any inhibitory effect on rotenone-induced cell death was able to be confirmed in none of the two tests; conditions: rotenone 1 μM, compound 10 nM-10 μM (Apo 0.1 nM-10 μM), 48 hours
Description: After the completion of culture, rotenone-induced cell death was measured using Cytotoxicity LDH Assay Kit-WST (Dojindo Laboratories). […] The test was conducted twice, and the case where a concentration-dependent inhibitory effect on rotenone-induced cell death was able to be confirmed twice was rated as (++). If the inhibitory effect was confirmed in one of the two tests and no inhibitory effect was confirmed in the other test, the third test was conducted. In the third test, the case where the concentration-dependent inhibitory effect was able to be confirmed was rated as (+), and the case where no concentration-dependent inhibitory effect was able to be confirmed was rated as (±). The case where any inhibitory effect on rotenone-induced cell death was able to be confirmed in none of the two tests was rated as (−).

[3] = tested on: MELAS patient cells (ME169); experiment: Test III: suppression of BSO-induced ferroptosis, MELAS patient cells; format: cell-based, human; conditions: 80 μM BSO coadded with test compound; FIG. 33
Text: as §1, §2

[4] = tested on: Leigh syndrome patient cells (KCMC10); experiment: Test III: suppression of RSL-3-induced ferroptosis, Leigh syndrome patient cells; format: cell-based, human; conditions: 100 nM RSL-3 coadded with test compound; FIG. 34
Text: as §1
as §2, with “RSL-3” for “BSO”

[5] = tested on: MELAS patient cells (ME169); experiment: Test III: suppression of RSL-3-induced ferroptosis, MELAS patient cells; format: cell-based, human; conditions: 100 nM RSL-3 coadded with test compound; FIG. 35
Text: as §1
as §2, with “RSL-3” for “BSO”

Chain of dopamine D2 receptor (P14416 whole entry): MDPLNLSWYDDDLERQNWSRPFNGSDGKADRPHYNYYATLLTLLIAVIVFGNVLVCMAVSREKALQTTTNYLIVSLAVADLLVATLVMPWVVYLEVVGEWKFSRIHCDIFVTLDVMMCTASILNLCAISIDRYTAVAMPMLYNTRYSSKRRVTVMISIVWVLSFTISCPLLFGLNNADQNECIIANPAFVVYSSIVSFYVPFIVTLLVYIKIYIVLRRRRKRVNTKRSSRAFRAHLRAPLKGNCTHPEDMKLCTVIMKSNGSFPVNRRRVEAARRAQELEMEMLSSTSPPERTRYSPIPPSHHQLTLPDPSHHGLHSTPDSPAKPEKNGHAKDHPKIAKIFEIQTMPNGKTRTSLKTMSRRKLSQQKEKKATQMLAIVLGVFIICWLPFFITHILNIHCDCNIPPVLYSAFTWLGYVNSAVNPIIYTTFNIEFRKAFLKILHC

Row | Compound | EC50 [1] [nM] | dopamine D2 receptor binding activity (in words) (dopamine D2 receptor) | Dopamine D2 receptor binding activity, Activity intensity (dopamine D2 receptor) | viability at 1 µM [2] [%] | LDH (LDH activity, cell death) [2] | Inhibitory effect on rotenone-induced cell death (SH-SY5Y cells) | cell death ascribable to ferroptosis induced by BSO [1] | cell death ascribable to ferroptosis induced by BSO [3] | cell death ascribable to ferroptosis induced by RSL-3 [4] | cell death ascribable to ferroptosis induced by RSL-3 [5] | ferroptosis inhibitory effect (judged from EC50 value) [1]
1 | COc1ccc2c(c1O)-c1c(OC)c(OC)cc3c1[C@@H](C2)N(C)CC3 [D43] | 223 | no or little | − | 49 | 6.52 | − |  |  |  |  | 
2 | CCCCCCCCCOc1ccc2c(c1O)-c1cccc3c1[C@@H](C2)N(C)CC3.Cl [D41] | 648 | no or little | − |  |  |  |  |  |  |  | 
3 | CN1CCc2cc3c(c4c2[C@H]1Cc1ccccc1-4)OCO3 [D18] | 492 | no or little | − |  |  |  | markedly suppressed | markedly suppressed | suppressed | suppressed | 
4 | CN1CCc2cccc3c2[C@H]1Cc1ccc(OCc2ccccc2)c(O)c1-3 [D47] | 124 | no or little | − | 71 | 0.39 | ++ |  |  |  |  | particularly high
5 | CCOc1ccc2c(c1O)-c1cccc3c1[C@@H](C2)N(C)CC3 [D55] | 4 | no or little | − | 78 | 0.44 | + |  |  |  |  | particularly high
6 | CN1CCc2cccc3c2[C@H]1Cc1ccc(-c2ccccc2)c(O)c1-3 [D45] | 96 | no or little | ± | 77 | 0.43 | ++ |  |  |  |  | particularly high
7 | CN1CCc2cccc3c2[C@H]1Cc1ccc(OCCC(c2ccccc2)c2ccccc2)c(O)c1-3 [D54] |  | no or little | − | 68 | 0.43 | − |  |  |  |  | 
8 | CN1CCc2cccc3c2[C@H]1Cc1ccc(OCCc2ccccc2)c(O)c1-3 [D48] | 128 | no or little | − | 78 | 0.44 | ++ |  |  |  |  | particularly high
9 | CN1CCc2cccc3c2[C@H]1Cc1ccc(OCCCO)c(O)c1-3.Cl [D38] |  | no or little | ± | 81 | 1.66 | ++ |  |  |  |  | particularly high
10 | CN1CCc2cccc3c2[C@H]1Cc1ccc(OCCCCl)c(O)c1-3.Cl [D39] | 259 | no or little | − | 80 | 1.15 | + |  |  |  |  | 
11 | COc1cc(O)c2c(c1)C[C@@H]1c3c(cc4c(c3-2)OCO4)CCN1C [D10] | 750 | no or little | − |  |  |  | markedly suppressed | markedly suppressed | suppressed | suppressed | 
12 | CN1CCc2cccc3c2[C@H]1Cc1ccc(OCCCc2ccccc2)c(O)c1-3.Cl [D37] | 186 | no or little | − | 80 | 0.85 | ++ |  |  |  |  | particularly high
13 | COc1cc2c(cc1OC)-c1c3c(c(OC)c4c1C(C2)N(C)CC4)OCO3 (stereo not shown) [D20] | 798 | no or little | − |  |  |  | markedly suppressed | markedly suppressed | suppressed | suppressed | 
14 | COc1cccc2c1C[C@@H]1c3c(cc4c(c3-2)OCO4)CCN1C [D9] | 393 | no or little | − |  |  |  | markedly suppressed | markedly suppressed | suppressed | suppressed | 
15 | CN1CCc2cccc3c2[C@H]1Cc1ccc(OCCCC(F)(F)F)c(O)c1-3.Cl [D42] | 167 | no or little | − | 82 | 1.55 | + |  |  |  |  | particularly high
16 | CCCOc1ccc2c(c1O)-c1cccc3c1[C@@H](C2)N(C)CC3.Cl [D40] | 55 | no or little | − | 84 | 1.15 | + |  |  |  |  | particularly high
17 | CN1CCc2cccc3c2[C@H]1Cc1ccc(OCCCCc2ccccc2)c(O)c1-3 [D50] | 207 | no or little | − | 60 | 0.43 | ++ |  |  |  |  | 
